Test results from patent publication US9902696B2, “1,4-substituted piperidine derivatives” (Cephalon, Inc., priority 2015, dated 2018).
Counter-ions that a name gives are not always drawn. Like-named read-outs stand apart in the source and are kept apart here.

Experiments:
[1] = molecular target: T1, recombinant human baculovirus-expressed GST-tagged FASN (Homo sapiens, UniProt P49327); assay: FASN enzyme activity assay, fluorescence-based detection of CoA with CPM; type: biochemical; conditions: 5 nM FASN, 150 μM NADPH, 10 μM acetyl-CoA, 25 μM malonyl-CoA, 90 minutes incubation
T1 construct: GST
Method in brief: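 Human GST-tagged FASN, baculovirus-expressed (5 nM), in 50 mM HEPES pH 7.5 with 150 μM NADPH, 10 μM acetyl-CoA, 25 μM malonyl-CoA, 0.5% DMSO; malonyl-CoA-started, 90 min. Released CoA detected with CPM (50 μM dilution), 30 min, fluorescence ex 390/em 530. IC50 from variable-slope sigmoidal fit of % inhibition versus log concentration.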

[2] = read-out: IC50 data for Additional Compounds of Formulae I-V(a): Activity
[3] = read-out: IC50 data for Compounds of Formulae I-V/V(a): Activity

T1 sequence (P49327 whole entry): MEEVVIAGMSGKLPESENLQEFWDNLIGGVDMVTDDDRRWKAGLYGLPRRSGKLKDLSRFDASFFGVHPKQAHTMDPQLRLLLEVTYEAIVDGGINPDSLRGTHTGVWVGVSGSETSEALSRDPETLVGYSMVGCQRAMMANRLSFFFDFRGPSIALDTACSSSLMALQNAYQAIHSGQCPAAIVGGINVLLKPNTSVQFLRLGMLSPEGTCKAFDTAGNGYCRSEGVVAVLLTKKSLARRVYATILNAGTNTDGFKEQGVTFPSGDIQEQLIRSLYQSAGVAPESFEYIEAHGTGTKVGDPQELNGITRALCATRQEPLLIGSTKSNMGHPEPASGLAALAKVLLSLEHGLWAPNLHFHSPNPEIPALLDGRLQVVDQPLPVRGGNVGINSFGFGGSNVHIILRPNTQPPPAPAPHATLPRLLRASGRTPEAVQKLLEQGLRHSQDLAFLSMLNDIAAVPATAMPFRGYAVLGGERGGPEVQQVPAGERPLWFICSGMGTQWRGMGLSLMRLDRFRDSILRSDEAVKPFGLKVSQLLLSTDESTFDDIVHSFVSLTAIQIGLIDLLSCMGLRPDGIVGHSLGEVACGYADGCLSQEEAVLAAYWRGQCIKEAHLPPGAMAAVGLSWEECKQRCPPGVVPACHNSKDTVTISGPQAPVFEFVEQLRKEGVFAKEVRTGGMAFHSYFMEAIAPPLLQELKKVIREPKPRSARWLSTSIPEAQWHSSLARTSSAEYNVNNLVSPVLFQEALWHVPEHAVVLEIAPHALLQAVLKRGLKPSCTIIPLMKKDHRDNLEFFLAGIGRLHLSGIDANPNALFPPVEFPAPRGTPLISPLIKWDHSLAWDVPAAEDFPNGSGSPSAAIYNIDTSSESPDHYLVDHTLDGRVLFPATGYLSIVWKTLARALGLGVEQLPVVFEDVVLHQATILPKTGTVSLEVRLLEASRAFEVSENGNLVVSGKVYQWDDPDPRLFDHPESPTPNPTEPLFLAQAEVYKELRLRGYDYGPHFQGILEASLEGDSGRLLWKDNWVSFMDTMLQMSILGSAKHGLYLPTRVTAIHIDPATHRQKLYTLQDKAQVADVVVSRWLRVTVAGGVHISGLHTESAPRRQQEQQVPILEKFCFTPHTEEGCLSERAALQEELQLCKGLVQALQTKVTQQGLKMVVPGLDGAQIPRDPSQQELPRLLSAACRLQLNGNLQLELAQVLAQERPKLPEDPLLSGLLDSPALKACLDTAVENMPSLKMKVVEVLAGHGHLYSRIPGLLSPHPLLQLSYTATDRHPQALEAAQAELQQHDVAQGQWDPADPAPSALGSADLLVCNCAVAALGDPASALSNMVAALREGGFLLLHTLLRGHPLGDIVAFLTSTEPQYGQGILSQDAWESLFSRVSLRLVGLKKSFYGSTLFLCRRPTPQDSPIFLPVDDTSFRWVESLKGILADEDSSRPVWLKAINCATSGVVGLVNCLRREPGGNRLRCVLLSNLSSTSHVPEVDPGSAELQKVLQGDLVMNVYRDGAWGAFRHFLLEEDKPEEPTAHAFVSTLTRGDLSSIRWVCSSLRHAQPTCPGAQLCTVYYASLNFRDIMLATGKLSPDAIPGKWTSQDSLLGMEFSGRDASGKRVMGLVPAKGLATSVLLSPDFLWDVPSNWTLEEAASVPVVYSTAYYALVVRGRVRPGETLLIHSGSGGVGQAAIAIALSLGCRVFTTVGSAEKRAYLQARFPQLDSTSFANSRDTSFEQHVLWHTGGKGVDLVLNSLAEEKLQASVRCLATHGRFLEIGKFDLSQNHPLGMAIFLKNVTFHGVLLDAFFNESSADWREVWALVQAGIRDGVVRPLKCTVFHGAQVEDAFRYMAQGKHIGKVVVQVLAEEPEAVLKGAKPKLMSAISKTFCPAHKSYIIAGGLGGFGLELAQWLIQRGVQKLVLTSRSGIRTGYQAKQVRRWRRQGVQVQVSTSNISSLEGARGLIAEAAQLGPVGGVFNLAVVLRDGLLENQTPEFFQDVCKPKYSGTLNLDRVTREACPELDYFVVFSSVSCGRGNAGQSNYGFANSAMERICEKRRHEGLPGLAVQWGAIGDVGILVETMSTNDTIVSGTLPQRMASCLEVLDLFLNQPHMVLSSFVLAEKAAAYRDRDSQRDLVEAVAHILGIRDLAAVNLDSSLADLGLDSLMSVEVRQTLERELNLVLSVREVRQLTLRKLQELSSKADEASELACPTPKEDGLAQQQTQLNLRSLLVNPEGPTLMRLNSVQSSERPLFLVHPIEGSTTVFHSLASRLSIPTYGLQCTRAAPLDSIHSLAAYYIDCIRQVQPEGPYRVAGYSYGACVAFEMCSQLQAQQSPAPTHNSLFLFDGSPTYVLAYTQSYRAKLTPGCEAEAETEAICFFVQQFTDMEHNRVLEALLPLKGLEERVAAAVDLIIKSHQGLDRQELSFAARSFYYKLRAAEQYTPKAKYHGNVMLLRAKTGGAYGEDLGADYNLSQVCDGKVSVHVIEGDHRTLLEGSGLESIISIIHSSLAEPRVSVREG

CCC(=O)N1CCC(Oc2ccc(-c3ccc4cccnc4c3)nc2)CC1 (as salt: HCl) [Example 144, 1-[4-(6-Quinolin-7-yl-pyridin-3-yloxy)-piperidin-1-yl]-propan-1-one, 2HCl]
melting point: 90 to 96 °C

CC(C)C(=O)N1CCC(Sc2ccc(-c3cncc4ccccc34)cc2)CC1 (as salt: HCl) [Example 523, 1-(4-((4-(Isoquinolin-4-yl)phenyl)thio)piperidin-1-yl)-2-methylpropan-1-one HCl]
melting point: 120 °C

CCC(=O)N1CCC(Sc2ccc(-c3ccc4cccnc4c3)cc2)CC1 (as salt: HCl) [Example 516, 1-(4-((4-(quinolin-7-yl)phenyl)thio)piperidin-1-yl)propan-1-one, HCl]
melting point: 188 °C

CC(C)C(=O)N1CCC(Oc2ccc(-c3ccc4cnccc4c3)nc2)CC1 (as salt: HCl) [Example 148, 1-[4-(6-Isoquinolin-6-yl-pyridin-3-yloxy)-piperidin-1-yl]-2-methyl-propan-1-one, 2HCl]
melting point: 236 to 241 °C

Cc1c(-c2ccc(OC3CCN(C(=O)[C@@H]4CCCN4C)CC3)cc2)ccc2cccnc12 [Example 617, [(2S)-1-Methylpyrrolidin-2-yl]-[4-[4-(8-methyl-7-quinolyl)phenoxy]-1-piperidyl]methanone]
IC50 [1, 2]: 1 to 10 µM

O=C(C1CC1)N1CCC(Oc2ccc(-c3ccc4nnc(C(F)(F)F)n4c3)cc2)CC1 [Example 160, Cyclopropyl-{4-[4-(3-trifluoromethyl-1,2,4-triazolo[4,3-a]pyridin-6-yl)-phenoxy]-piperidin-1-yl}-methanone, HCl]
IC50 [1, 3]: 1 to 10 µM

CC(C)(C)C(=O)N1CCC(Oc2ccc(-c3cnc4ccccc4c3)cc2)CC1 [Example 114, 2,2-Dimethyl-1-[4-(4-quinolin-3-yl-phenoxy)-piperidin-1-yl]-propan-1-one, HCl]
IC50 [1, 3]: 0.1 to 0.999 µM

CCC(=O)N1CCC(Sc2ccc(-c3ccc4cccnc4c3)cc2)CC1 [Example 516, 1-(4-((4-(quinolin-7-yl)phenyl)thio)piperidin-1-yl)propan-1-one, HCl]
IC50 [1, 3]: 0.001 to 0.099 µM

CCC(=O)N1CCC(N(C)C(=O)c2ccc(-c3ccc4cnccc4c3)cc2F)CC1 [Example 158, 2-Fluoro-4-isoquinolin-6-yl-N-methyl-N-(1-propionyl-piperidin-4-yl)-benzamide]
IC50 [1, 3]: 1 to 10 µM

Cc1c(-c2ccc(OC3CCN(C(=O)[C@@H](C)N)CC3)cc2)ccc2cccnc12 [Example 610, (2R)-2-Amino-1-[4-[4-(8-methyl-7-quinolyl)phenoxy]-1-piperidyl]propan-1-one, 2HCl]
IC50 [1, 2]: 1 to 10 µM

CCC(=O)N1CCC(Oc2ccc(-c3cc(C)cc4ncccc34)cc2)CC1 [Example 348, 1-(4-(4-(7-methylquinolin-5-yl)phenoxy)piperidin-1-yl)propan-1-one HCl]
IC50 [1, 3]: 0.001 to 0.099 µM

CCC(=O)N1CCC(Oc2ccc(-c3ccc4c(c3)OCCO4)cc2)CC1 [Example 502, 1-{4-[4-(2,3-Dihydro-1,4-benzodioxin-6-yl)-phenoxy]-piperidin-1-yl}-propan-1-one]
IC50 [1, 3]: 1 to 10 µM

CCC(=O)N1CCC(Oc2ccc(-c3cc4ccccc4cn3)cc2)CC1 [Example 43, 1-[4-(4-Isoquinolin-3-yl-phenoxy)-piperidin-1-yl]-propan-1-one]
IC50 [1, 3]: 0.001 to 0.099 µM

O=C([C@H]1CCCO1)N1CCC(Oc2ccc(-c3cnc4ccccc4n3)cc2)CC1 [Example 68, [4-(4-Quinoxalin-2-yl-phenoxy)-piperidin-1-yl]-(R)-tetrahydrofuran-2-yl-methanone]
IC50 [1, 3]: 0.001 to 0.099 µM

CN(c1ccc(-c2cnc3ccccc3c2)cc1)C1CCN(C(=O)C2CC2)CC1 [Example 525, Cyclopropyl-{4-[methyl-(4-quinolin-3-yl-phenyl)-amino]-piperidin-1-yl}-methanone, HCl]
IC50 [1, 3]: 0.1 to 0.999 µM

O=C(C1CC1)N1CCC(Oc2ccc(-c3cnc4cccc(F)c4c3)cc2)CC1 [Example 30]
IC50 [1, 3]: 0.001 to 0.099 µM

O=C(N1CCC(Oc2ccc(-c3cnc4ccccc4n3)cc2)CC1)N1CCCO1 [Example 81, Isoxazolidin-2-yl-[4-(4-quinoxalin-2-yl-phenoxy)-piperidin-1-yl]-methanone]
IC50 [1, 3]: 0.001 to 0.099 µM

Cc1cnc2cc(-c3ccc(OC4CCN(C(=O)[C@H]5CCCO5)CC4)cc3)ccc2c1 [Example 281, {4-[4-(3-Methylquinolin-7-yl)-phenoxy]-piperidin-1-yl}-(R)-tetrahydro-furan-2-yl-methanone]
IC50 [1, 3]: 1 to 10 µM

CCC(=O)N1CCC(Oc2ccc(-c3ccc4cccnc4c3NC)cc2)CC1 [Example 326, 1-{4-[4-(8-Methylaminoquinolin-7-yl)-phenoxy]-piperidin-1-yl}-propan-1-one]
IC50 [1, 3]: 0.1 to 0.999 µM

Cc1c(-c2ccc(OC3CCN(C(=O)C4(O)CC4)CC3)cc2)ccc2ncnn12 [Example 312, (1-Hydroxycyclopropyl)-{4-[4-(5-methyl-[1,2,4]triazolo[1,5-a]pyridin-6-yl)-phenoxy]-piperidin-1-yl}-methanone]
IC50 [1, 3]: 0.1 to 0.999 µM

CNC(=O)N1CCC(Oc2ccc(-c3ccc4cccnc4c3OC)cc2)CC1 [Example 85, 4-[4-(8-Methoxyquinolin-7-yl)-phenoxy]-piperidine-1-carboxylic acid methylamide]
IC50 [1, 3]: 0.1 to 0.999 µM

Cc1c(-c2ccc(OC3CCN(C(=O)[C@@H]4CCCO4)CC3)cc2)ccc2cccnc12 [Example 70, {4-[4-(8-Methylquinolin-7-yl)-phenoxy]-piperidin-1-yl}-(S)-tetrahydro-furan-2-yl-methanone]
IC50 [1, 3]: 0.001 to 0.099 µM

CCC(=O)N1CCC(Oc2ccc(-c3ccc4cc(C)cnc4c3)cc2)CC1 [Example 280, 1-{4-[4-(3-Methylquinolin-7-yl)-phenoxy]-piperidin-1-yl}-propan-1-one]
IC50 [1, 3]: 0.001 to 0.099 µM

CC(C)Oc1cc2cc(-c3ccc(OC4CCN(C(=O)[C@H]5CCCO5)CC4)cc3)ccc2cn1 [Example 451, {4-[4-(3-Isopropoxyisoquinolin-6-yl)-phenoxy]-piperidin-1-yl}-(R)-tetrahydrofuran-2-yl-methanone]
IC50 [1, 3]: 0.001 to 0.099 µM

O=C(C1CCCO1)N1CCC(Oc2ccc(-c3cnc4ccccc4c3)cc2)CC1 (stereo not shown) [Example 126, [4-(4-Quinolin-3-yl-phenoxy)-piperidin-1-yl]-(tetrahydrofuran-2-yl)-methanone, HCl]
IC50 [1, 3]: 0.001 to 0.099 µM

CCC(=O)N1CCC(Oc2ccc(-c3ccc4cnc(N)cc4c3)cc2)CC1 [Example 422, 1-{4-[4-(3-Aminoisoquinolin-6-yl)-phenoxy]-piperidin-1-yl}-propan-1-one]
IC50 [1, 3]: 0.1 to 0.999 µM

CCC(=O)N1CCC(Oc2ccc(-c3ccc4cccnc4c3O)cc2)CC1 [Example 188, 1-{4-[4-(8-Hydroxyquinolin-7-yl)-phenoxy]-piperidin-1-yl}-propan-1-one, HCl]
IC50 [1, 3]: 0.1 to 0.999 µM

CCC(=O)N1CCC(Oc2ccc(-c3cnc4[nH]ccc4c3)cc2)CC1 [Example 32, 1-{4-[4-(1H-Pyrrolo[2,3-b]pyridin-5-yl)-phenoxy]-piperidin-1-yl}-propan-1-one]
IC50 [1, 3]: 0.1 to 0.999 µM

C[C@@H]1C[C@H](C(=O)N2CCC(Oc3ccc(-c4cnc5ccccc5c4)cc3)CC2)O[C@@H]1C [Example 156, ((2R,4R,5R)/(2S,4S,5 S)-4,5-Dimethyl-tetrahydrofuran-2-yl)-[4-(4-quinolin-3-yl-phenoxy)-piperidin-1-yl]-methanone, HCL]
IC50 [1, 3]: 0.1 to 0.999 µM

CCC(=O)N1CCC(Oc2ccc(-c3ccc4cccnc4c3)nc2)CC1 [Example 144, 1-[4-(6-Quinolin-7-yl-pyridin-3-yloxy)-piperidin-1-yl]-propan-1-one, 2HCl]
IC50 [1, 3]: 1 to 10 µM

CC1(C(=O)N2CCC(Oc3ccc(-c4cnc5ccccc5c4)cc3)CC2)CCCO1 (stereo not shown) [Example 115, (2-Methyltetrahydrofuran-2-yl)-[4-(4-quinolin-3-yl-phenoxy)-piperidin-1-yl]-methanone, HCl]
IC50 [1, 3]: 0.1 to 0.999 µM

Cc1c(-c2ccc(OC3CCN(C(=O)NOC(C)C)CC3)cc2)ccc2cccnc12 [Example 543, N-Isopropoxy-4-[4-(8-methyl-7-quinolyl)phenoxy]piperidine-1-carboxamide]
IC50 [1, 2]: 1 to 10 µM

COc1cccc2cc(-c3ccc(OC4CCN(C(=O)C5CC5)CC4)cc3)cnc12 [Example 58, Cyclopropyl-{4-[4-(8-methoxyquinolin-3-yl)-phenoxy]-piperidin-1-yl}-methanone]
IC50 [1, 3]: 0.1 to 0.999 µM

CCNC(=O)N1CCC(Oc2ccc(-c3ccc4cccnc4c3C)cc2)CC1 [Example 88, N-ethyl-4-[4-(8-methyl-7-quinolyl)phenoxy]piperidine-1-carboxamide]
IC50 [1, 3]: 0.001 to 0.099 µM

Cc1cccc2ncc(-c3ccc(OC4CCN(C(=O)[C@H]5CCCO5)CC4)cc3)cc12 [Example 462, {4-[4-(5-Methylquinolin-3-yl)-phenoxy]-piperidin-1-yl}-(R)-tetrahydro-furan-2-yl-methanone, HCl]
IC50 [1, 3]: 0.001 to 0.099 µM

O=C(C1CC1)N1CCC(Oc2ccc(-c3ccc4cccnc4c3)cn2)CC1 [Example 137, Cyclopropyl-[4-(5-quinolin-7-yl-pyridin-2-yloxy)-piperidin-1-yl]-methanone, HCl]
IC50 [1, 3]: 0.1 to 0.999 µM

CCC(=O)N1CCC(Oc2ccc(-c3ccc(-c4ccccc4)nc3)cc2)CC1 [Example 378, 1-{4-[4-(6-Phenyl-pyridin-3-yl)-phenoxy]-piperidin-1-yl}-propan-1-one]
IC50 [1, 3]: 1 to 10 µM

CC(C)C(=O)N1CCC(Oc2ccc(-c3cncc(-c4ccccc4)c3)cc2)CC1 [Example 383]
IC50 [1, 3]: 1 to 10 µM

CCC(=O)N1CCC(Oc2ccc(-c3cnc4ccccc4c3N(C)C)cc2)CC1 [Example 232, 1-{4-[4-(4-Dimethylaminoquinolin-3-yl)-phenoxy]-piperidin-1-yl}-propan-1-one]
IC50 [1, 3]: 1 to 10 µM

CCC(=O)N1CCC(Oc2ccc(-c3ccc4cccnc4c3C(N)=O)cc2)CC1 [Example 337, 7-[4-(1-Propionyl-piperidin-4-yloxy)-phenyl]-quinoline-8-carboxylic acid amide]
IC50 [1, 3]: 1 to 10 µM
